Laboratory results from patent publication US10206900B2, “Treatments for fibrotic diseases” (MOR RESEARCH APPLICATIONS LTD., priority 2013, dated 2019).

Tests used:
p38 [1] = assay: p38 phosphorylation by immuno-blot in HT29 colon cells; format: cell-based; conditions: HT29 Human colon cells, TGF-β treatment, versus untreated cells
Procedure: FIG. 11. Inhibition of TAK1 abolishes the activation of TGF-β cascades in colon cells. TGF-β1 up-regulates-Smad 2/3 and p38 activation via TAK1 activity in colon cells. HT29 Human colon cells were treated with or without 5Z-7-oxozeaenol followed by TGF-β treatment. Smad2/3 and p38 phosphorylation patterns were examined by immuno-blots. HT29 Human colon cells were treated as in the previous examples with or without 5Z-7-oxozeaenol, followed by TGF-β treatment. Inhibition of TAK1 was assayed by observation of Smad2/3 and p38 phosphorylation patterns by immuno-blots.

p38 [2] = assay: p38 phosphorylation by immuno-blot in W2b liver hepatocytes; format: cell-based; conditions: 1 μM for 1 hour, TGF-β 2.5 ng/ml
Procedure: (§1) FIG. 10: Inhibition of TAK1 abolishes the activation of TGF-β cascades in liver cells. TGF-β1 up-regulates-Smad 2/3 and p38 activation and E-cadherin expression via TAK1 activity in hepatic cells. W2B liver hepatocytes cells were treated with or without 5Z-7-oxozeaenol followed by TGF-β treatment and Smad2/3 and p38 phosphorylation patterns were examined by immuno-blots. W2b liver hepatocytes cells were treated with or without 5Z-7-oxozeaenol (1 μM) for 1 hour followed by TGF-β treatment (2.5 ng/ml) for the indicated times. Smad2/3 and p38 phosphorylation patterns were examined by immuno-blots as described above.

[3] = tested on: TGF-β cascades in epithelial lung cells; assay: Western blot of TGF-β cascades in A549 lung cells; format: cell-based; conditions: 1 μM for 1 hour, TGF-β 2.5 ng/ml
Procedure: FIG. 14: Inhibition of TAK1 by 5z-7 abolishes the activation of TGF-β cascades in epithelial lung cells: Serum-starved A549 cells were pretreated with or without with 5Z-7-oxozeaenol (1 μM) for 1 hour and then with TGF-β (2.5 ng/ml) for the indicated times. Total protein extracts were analyzed by western blot using the indicated antibodies. […] Similarly, A549 lung cells were pretreated with or without with 5Z-7-oxozeaenol (1 μM) for 1 hour and then with TGF-β (2.5 ng/ml).

RPE cells [4] = assay: In vitro scratch wound healing assay upon TNFα stimulation; format: cell-based; conditions: 1 μM for 1 hour before 20 ng/ml TNFα, day 1 and 2
Procedure: FIG. 8A: Cell migration of RPE cells in in vitro scratch wound healing assay. RPE cells were treated with Mitomycin C for 3 hours. After the cells were treated with 1 μM 5Z-7 for 1 hour before adding 20 ng/ml TNFα and wounding on day 0. Photographs were taken at day 1 and 2, respectively, after the wound was made. FIG. 8B: Percentage of the gap size (*, P<0.05, t test); (**, P<0.01, t test). To further support the finding that TAK1 mediated EMT in RPE, we examined the migratory capacity of RPE cells, a well-known marker for EMT (Lee et al., J Cell Biol 2006, 172:973-981). Cell migration was tested by the scratch assay. The assay was performed on RPE cells pretreated or untreated with TAK1 inhibitor prior to stimulation with TGF-β1. […] At 24 hours, in the TGF-β1 treated culture, a major portion of the cells had already migrated into the wounded area, displaying almost complete wound closure at 48 hours.

Smad2/3 = Smad2/3 phosphorylation by immuno-blot in W2b liver hepatocytes; format: cell-based; conditions: 1 μM for 1 hour, TGF-β 2.5 ng/ml
Procedure: as §1

RPE cells [5] = assay: Scratch assay, cell migration upon TGF-β1 stimulation; format: cell-based; conditions: 1 μM, TGF-β1 2.5 ng/ml, 24 and 48 hours
Procedure: FIGS. 2A-2C TAK1 regulates RPE cells EMT phenotype upon TGF-β stimulation. FIG. 2A: RPE cells were serum-starved for 16 hours, pretreated with 5Z-7-oxozeaenol (1 μM) or left untreated for 1 hour. The cells were then treated with TGF-β1 (2.5 ng/ml) as described herein for 24 h and immunostained with α-SMA antibodies (red) and DAPI (blue). Representative photographs of three independent experiments. The histogram in the bottom panel represents quantification of α-SMA antibody pixel intensity. FIG. 2B: RPE cells were serum-starved for 16 hours, then treated with mitomycin C (10 ng/ml) for 3 h. Thereafter, pretreated with 5Z-7-oxozeaenol (1 μM) or Dimethyl sulfoxide (DMSO) for 1 hour. Following this process a scratch was performed in the cell monolayer and the serum free medium was supplemented with TGF-β1 (2.5 ng/ml) or left unsupplemented. Scratches were photo-documented at the indicated times (top panel) and their width was measured using Image-J software. […] Bars are Mean±SD. FIG. 2C: RPE cells were serum-starved for 16 hours then pretreated with 5Z-7-oxozeaenol (1 μM) or SB431542 (10 μM), or DMSO for 1 hour. […] Total MMP-9 activities were processed by gelatin zymography (top panel) and the band intensity values were calculated by Quantity One® 1-D analysis software. […] Data is expressed as the Mean±SD. […]

c57Black mice = assay: Dispase-induced PVR in mice (H&E histology); format: in vivo; conditions: treated 96 hour post-dispase, H&E 96 hours later
Procedure: 96 hour post-treatment, the mice were further treated with 5Z-7-oxozeaenol left untreated, and 96 hours later, mice were sacrificed, eyes were enucleated and stained with hematoxylin and eosin (H&E). […] As shown in the middle panel, dispase caused PVR, manifested by loss of normal cellular architecture of the retina, presence of numerous inflammatory cells and presence of RPE cells throughout all retinal layers compared to the control (left panel). As shown in the right panel, treatment with 5Z-7-oxozeaenol maintained the normal retinal structure and prevented the development of the fibrotic response. 7-8 week old c57Black mice were treated or left untreated with dispase to generate PVR in the mice. 96 hour post-treatment, the mice were treated with 5Z-7-oxozeaenol or left untreated, and 96 hour later, mice were sacrificed, eye were […] and stained with hematoxylin and eosin (H&E).

COc1cc(O)c2c(c1)/C=C/C[C@H](O)[C@H](O)C(=O)/C=C\C[C@H](C)OC2=O [5Z-7-oxozeaenol]
p38 phosphorylation (p38 [1]): significantly inhibited
p38 activation (p38 [2]): barely detectable
fibrotic affect stimulated by TGF-β (western blot) [3]: abolishes the fibrotic affect
migration rates of RPE cells treated with TNFα (RPE cells [4]): inhibited the migration rates
Smad2/3 activation (Smad2/3): barely detectable
migratory capacity of TGF-β1 stimulated cells (scratch assay) (RPE cells [5]): abolished their migratory capacity
development of the fibrotic response / retinal structure (PVR) (c57Black mice): prevents the development of the fibrotic response
